Patent publication US7041687B2, “Indazole compounds useful as protein kinase inhibitors” (Vertex Pharmaceuticals Incorporated, priority 2002, dated 2006)

target: AKT-3 (Homo sapiens, UniProt Q9Y243); assay: AKT-3 inhibition assay (standard coupled enzyme assay); format: biochemical; settings: 170 μM ATP, 200 μM peptide, 45 nM AKT, 30° C.
Sequence (Q9Y243 whole entry): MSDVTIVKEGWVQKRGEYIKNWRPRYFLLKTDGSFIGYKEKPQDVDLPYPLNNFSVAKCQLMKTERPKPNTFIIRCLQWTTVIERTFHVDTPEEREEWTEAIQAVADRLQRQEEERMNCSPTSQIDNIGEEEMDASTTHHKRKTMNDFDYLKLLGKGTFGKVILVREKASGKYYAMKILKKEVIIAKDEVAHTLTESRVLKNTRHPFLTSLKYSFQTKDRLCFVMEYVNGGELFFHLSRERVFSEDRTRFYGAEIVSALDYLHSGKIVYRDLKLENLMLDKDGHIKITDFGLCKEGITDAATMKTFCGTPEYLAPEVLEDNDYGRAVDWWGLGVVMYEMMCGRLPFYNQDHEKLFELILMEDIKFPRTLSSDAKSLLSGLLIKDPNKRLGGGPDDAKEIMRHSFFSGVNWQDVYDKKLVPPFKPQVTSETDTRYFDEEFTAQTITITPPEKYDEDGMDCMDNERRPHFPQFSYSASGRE

Structure (SMILES)	Ki
N[C@@H](Cc1ccc(Cl)c(Cl)c1)C(=O)Nc1ccc2[nH]ncc2c1 [Compound I-95]	10000 to 20000 nM
NCC(C(=O)Nc1ccc2[nH]ncc2c1)c1cccc(Cl)c1 (centres unmarked) [Compound I-157]	1000 to 10000 nM
CCNCCNC(C(=O)Nc1ccc2[nH]ncc2c1)c1cccc(Cl)c1 (centres unmarked) [Compound I-63]	1000 to 10000 nM
NCC[C@@H](C(=O)Nc1ccc2[nH]nc(NC(=O)c3cccs3)c2c1)c1ccccc1 [Compound I-1049]	< 1000 nM
Cc1cccc(Nc2n[nH]c3ccc(NC(=O)C(CCN)c4ccc(Cl)c(Cl)c4)cc23)c1 (centres unmarked) [Compound I-212]	< 1000 nM
NCCC(C(=O)Nc1ccc2[nH]nc(NC(=O)c3ccc4c(c3)OCO4)c2c1)c1ccc(Cl)c(Cl)c1 (centres unmarked) [Compound I-171]	< 1000 nM
Nc1n[nH]c2ccc(NC(=O)Cc3ccc(Cl)c(Cl)c3)cc12 [Compound I-83]	1000 to 10000 nM
NC(C(=O)Nc1ccc2[nH]ncc2c1)c1ccc(Cl)cc1 (centres unmarked) [Compound I-50]	1000 to 10000 nM
CC(=O)c1cccc(C(=O)Nc2n[nH]c3ccc(NC(=O)C(CCN)c4ccc(Cl)c(Cl)c4)cc23)c1 (centres unmarked) [Compound I-220]	< 1000 nM
COC(=O)NCCC(C(=O)Nc1ccc2[nH]ncc2c1)c1ccc(Cl)c(Cl)c1 (centres unmarked) [Compound I-151]	1000 to 10000 nM
COc1ccc(C(NCCN)C(=O)Nc2ccc3[nH]ncc3c2)cc1Cl (centres unmarked) [Compound I-71]	1000 to 10000 nM
CNC(=O)NCCC(C(=O)Nc1ccc2[nH]ncc2c1)c1ccc(Cl)c(Cl)c1 (centres unmarked) [Compound I-152]	1000 to 10000 nM
NCCC(C(=O)Nc1ccc2[nH]nc(NC(=O)c3cccc(CN4CCNCC4)c3)c2c1)c1ccc(Cl)c(Cl)c1 (centres unmarked) [Compound I-218]	< 1000 nM
NCCC(C(=O)Nc1ccc2[nH]nc(-c3cccc(C(F)(F)F)c3)c2c1)c1ccc(Cl)c(Cl)c1 (centres unmarked) [Compound I-224]	< 1000 nM
NCCC(C(=O)Nc1ccc2[nH]nc(-c3cccc(OC(F)(F)F)c3)c2c1)c1ccc(Cl)c(Cl)c1 (centres unmarked) [Compound I-256]	< 1000 nM
CC(=O)c1n[nH]c2ccc(NC(=O)C(CN)c3ccc(Cl)c(Cl)c3)cc12 (centres unmarked) [Compound I-255]	1000 to 10000 nM
NCCCNC(C(=O)Nc1ccc2[nH]ncc2c1)c1cccc(Cl)c1 (centres unmarked) [Compound I-60]	< 1000 nM
NCCC(C(=O)Nc1ccc2[nH]nc(NC(=O)Cc3ccccc3)c2c1)c1ccc(Cl)c(Cl)c1 (centres unmarked) [Compound I-192]	1000 to 10000 nM
O=C(Nc1ccc2[nH]ncc2c1)C(NCCNCc1ccccc1)c1cccc(Cl)c1 (centres unmarked) [Compound I-64]	< 1000 nM
CCCNCCCNC(C(=O)Nc1ccc2[nH]ncc2c1)c1cccc(Cl)c1 (centres unmarked) [Compound I-68]	1000 to 10000 nM
NCCC(C(=O)Nc1ccc2[nH]nc(NC(=O)c3cccc(CN4CCOCC4)c3)c2c1)c1ccc(Cl)c(Cl)c1 (centres unmarked) [Compound I-215]	< 1000 nM
CCN(CC)Cc1cccc(C(=O)Nc2n[nH]c3ccc(NC(=O)C(CCN)c4ccc(Cl)c(Cl)c4)cc23)c1 (centres unmarked) [Compound I-216]	< 1000 nM

Structure (SMILES)	Ki
N[C@H](C(=O)Nc1ccc2[nH]ncc2c1)c1ccccc1 [Compound I-49]	1000 to 10000 nM
CNCCNC(C(=O)Nc1ccc2[nH]ncc2c1)c1cccc(Cl)c1 (centres unmarked) [Compound I-61]	< 1000 nM
NCCC(C(=O)Nc1ccc2[nH]nc(NC(=O)c3cccc(SC(F)F)c3)c2c1)c1ccc(Cl)c(Cl)c1 (centres unmarked) [Compound I-219]	< 1000 nM
COc1ccc(Br)cc1CC(=O)Nc1ccc2[nH]ncc2c1 [Compound I-94]	10000 to 20000 nM
O=C(Nc1ccc2[nH]ncc2c1)C(O)c1ccc(Br)cc1 (centres unmarked) [Compound I-37]	10000 to 20000 nM
NCCC(C(=O)Nc1ccc2[nH]ncc2c1)c1cccc(O)c1 (centres unmarked) [Compound I-115]	< 1000 nM
O=C(Nc1ccc2[nH]ncc2c1)C(NCCc1ccccn1)c1cccc(Cl)c1 (centres unmarked) [Compound I-66]	10000 to 20000 nM
NCCNC(C(=O)Nc1ccc2[nH]ncc2c1)c1ccc(Cl)cc1 (centres unmarked) [Compound I-70]	< 1000 nM
NC(C(=O)Nc1ccc2[nH]ncc2c1)c1cccc(C(F)(F)F)c1 (centres unmarked) [Compound I-53]	1000 to 10000 nM
NCCC(C(=O)Nc1ccc2[nH]nc(NC(=O)c3cccc(Cn4ccnc4)c3)c2c1)c1ccc(Cl)c(Cl)c1 (centres unmarked) [Compound I-217]	< 1000 nM
NCCNC(C(=O)Nc1ccc2[nH]ncc2c1)c1ccc(Oc2ccccc2)c(Cl)c1 (centres unmarked) [Compound I-72]	1000 to 10000 nM
O=C(Nc1ccc2[nH]ncc2c1)C(NCc1ccccn1)c1cccc(Cl)c1 (centres unmarked) [Compound I-65]	10000 to 20000 nM
CS(=O)(=O)c1cccc(C(=O)Nc2n[nH]c3ccc(NC(=O)C(CCN)c4ccc(Cl)c(Cl)c4)cc23)c1 (centres unmarked) [Compound I-221]	< 1000 nM
NC(C(=O)Nc1ccc2[nH]ncc2c1)c1ccc2ccccc2c1 (centres unmarked) [Compound I-58]	1000 to 10000 nM
O=C(Cc1ccc(Cl)cc1)Nc1ccc2[nH]ncc2c1 [Compound I-5]	1000 to 10000 nM
NCCC(C(=O)Nc1ccc2[nH]nc(-c3cccc(-c4ccccc4)c3)c2c1)c1ccc(Cl)c(Cl)c1 (centres unmarked) [Compound I-223]	< 1000 nM
CCc1n[nH]c2ccc(NC(=O)[C@H](O)c3cccc(Cl)c3)cc12 [Compound I-79]	10000 to 20000 nM
NCC(=O)NC(C(=O)Nc1ccc2[nH]ncc2c1)c1cccc(Cl)c1 (centres unmarked) [Compound I-74, 2-(2-Amino-acetylamino)-2-(3-chloro-phenyl)-N-(1H-indazol-5-yl)-acetamide]	< 1000 nM
NCC(C(=O)Nc1cc(-c2ccccc2)c2[nH]ncc2c1)c1ccc(Cl)c(Cl)c1 (centres unmarked) [Compound I-146]	10000 to 20000 nM
NCCC(C(=O)Nc1ccc2[nH]nc(NC(=O)c3cccc(CN4CCCCC4)c3)c2c1)c1ccc(Cl)c(Cl)c1 (centres unmarked) [Compound I-214]	< 1000 nM
CN(C)CCNC(C(=O)Nc1ccc2[nH]ncc2c1)c1cccc(Cl)c1 (centres unmarked) [Compound I-62]	< 1000 nM
Nc1n[nH]c2ccc(NC(=O)Cc3cccc(Cl)c3)cc12 [Compound I-82]	10000 to 20000 nM

target: T1, PDK-1 (Homo sapiens, UniProt O15530); assay: PDK-1 inhibition assay (radioactive-phosphate incorporation); format: biochemical; settings: 40 μM ATP, 65 μM PDKtide, 25 nM PDK-1, 30° C.
T1 sequence (O15530 1-556): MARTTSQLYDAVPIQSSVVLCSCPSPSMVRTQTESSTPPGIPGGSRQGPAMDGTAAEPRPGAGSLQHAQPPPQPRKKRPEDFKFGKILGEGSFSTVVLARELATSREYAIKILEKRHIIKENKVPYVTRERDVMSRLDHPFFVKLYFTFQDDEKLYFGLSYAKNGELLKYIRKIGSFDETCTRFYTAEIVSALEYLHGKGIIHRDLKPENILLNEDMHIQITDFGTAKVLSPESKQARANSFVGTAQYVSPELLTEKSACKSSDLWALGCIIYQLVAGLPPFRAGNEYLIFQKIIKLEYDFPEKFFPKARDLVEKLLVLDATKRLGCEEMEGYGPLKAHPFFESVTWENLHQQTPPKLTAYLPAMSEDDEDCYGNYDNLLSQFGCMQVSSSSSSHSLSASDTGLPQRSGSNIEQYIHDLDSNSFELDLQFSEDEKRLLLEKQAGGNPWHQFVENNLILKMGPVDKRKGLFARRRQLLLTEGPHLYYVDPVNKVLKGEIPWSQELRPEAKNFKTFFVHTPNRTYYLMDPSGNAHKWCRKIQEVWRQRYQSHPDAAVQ
Procedure: Compounds were screened for their ability to inhibit PDK-1 using a radioactive-phosphate incorporation assay (Pitt and Lee, J. Biomol. Screen., (1996) 1, 47). Assays were carried out in a mixture of 100 mM HEPES (pH 7.5), 10 mM MgCl2, 25 mM NaCl, 2 mM DTT. Final substrate concentrations in the assay were 40 μM ATP (Sigma Chemicals) and 65 μM peptide (PDKtide, Upstate, Lake Placid, N.Y.). Assays were carried out at 30° C. and 25 nM PDK-1 in the presence of ˜27.5 nCi/μL of [γ-^32P]ATP (Amersham Pharmacia Biotech, Amersham, UK). An assay stock buffer solution was prepared containing all of the reagents listed above, with the exception of ATP, and the test compound of interest. 15 μl of the stock solution was placed in a 96 well plate followed by addition of 1 μl of 0.5 mM DMSO stock containing the test compound (final compound concentration 25 μM, final DMSO concentration 5%). The plate was preincubated for about 10 minutes at 30° C. and the reaction initiated by addition of 4 μl ATP (final concentration 40 μM).
The reaction was stopped after 10 minutes by the addition of 100 μL 100 mM phosphoric acid, 0.01% Tween-20. A phosphocellulose 96 well plate (Millipore, Cat no. MAPHNOB50) was pretreated with 100 μL 100 mM phosphoric acid, 0.01% Tween-20 prior to the addition of the reaction mixture (100 μL). The spots were left to soak for at least 5 minutes, prior to wash steps (4×200 μL 100 mM phosphoric acid, 0.01% Tween-20). Alter drying, 20 μL Optiphase ‘SuperMix’ liquid scintillation cocktail (Perkin Elmer) was added to the well prior to scintillation counting (1450 Microbeta Liquid Scintillation Counter, Wallac).

Structure (SMILES)	Ki
NCC[C@@H](C(=O)Nc1ccc2[nH]nc(NC(=O)c3cccs3)c2c1)c1ccccc1 [Compound I-1049]	< 1000 nM
Cc1cccc(Nc2n[nH]c3ccc(NC(=O)C(CCN)c4ccc(Cl)c(Cl)c4)cc23)c1 (centres unmarked) [Compound I-212]	1000 to 3000 nM
NCCC(C(=O)Nc1ccc2[nH]nc(-c3cccc(OC(F)(F)F)c3)c2c1)c1ccccc1 (centres unmarked) [Compound I-239]	1000 to 3000 nM
NCCC(C(=O)Nc1ccc2[nH]nc(-c3ccc(C(N)=O)cc3)c2c1)c1ccccc1 (centres unmarked) [Compound I-262]	< 1000 nM
NCCC(C(=O)Nc1ccc2[nH]nc(NC(=O)c3ccc4c(c3)OCO4)c2c1)c1ccc(Cl)c(Cl)c1 (centres unmarked) [Compound I-171]	< 1000 nM
CNc1n[nH]c2ccc(NC(=O)C(CCN)c3ccccc3OC)cc12 (centres unmarked) [Compound I-1019]	> 3000 nM
NCCC(C(=O)Nc1ccc2[nH]ncc2c1)c1cccc(O)c1 (centres unmarked) [Compound I-1007]	1000 to 3000 nM
Cc1cccc(-c2n[nH]c3ccc(NC(=O)C(CCN)c4ccccc4)cc23)c1 (centres unmarked) [Compound I-238]	< 1000 nM
COc1cccc(C(CCN)C(=O)Nc2ccc3[nH]nc(Nc4cccc(C#N)c4)c3c2)c1 (centres unmarked) [Compound I-1031]	> 3000 nM
NCCC(C(=O)Nc1ccc2[nH]nc(C(=O)NCc3ccccc3)c2c1)c1ccccc1 (centres unmarked) [Compound I-1036]	1000 to 3000 nM
O=C(CCC(C(=O)N1CCN(Cc2ccccc2)CC1)c1ccccc1)Nc1ccc2[nH]ncc2c1 (centres unmarked) [Compound I-1015]	> 3000 nM
COc1cccc(C(CCNCc2ccccc2)C(=O)Nc2ccc3[nH]nc(C)c3c2)c1 (centres unmarked) [Compound I-1016]	> 3000 nM
NCCC(C(=O)Nc1ccc2[nH]nc(-c3ccc(CCC(=O)O)cc3)c2c1)c1ccccc1 (centres unmarked) [Compound I-264]	< 1000 nM
COc1cccc(C(CCN)C(=O)Nc2ccc3[nH]nc(Nc4cccc(C(N)=O)c4)c3c2)c1 (centres unmarked) [Compound I-1030]	> 3000 nM
Cc1n[nH]c2ccc(NC(=O)CCC(NCc3ccccc3)c3ccccc3F)cc12 (centres unmarked) [Compound I-1024]	> 3000 nM
CC(=O)OC(C(=O)Nc1ccc2[nH]ncc2c1)c1ccccc1 (centres unmarked) [Compound I-1020]	> 3000 nM
NCCC(C(=O)Nc1ccc2[nH]nc(CNC(=O)c3ccccc3)c2c1)c1ccccc1 (centres unmarked) [Compound I-1042]	> 3000 nM
O=C(Nc1ccc2[nH]ncc2c1)C(CCNCc1ccccc1)c1ccccc1F (centres unmarked) [Compound I-1025]	> 3000 nM
NCCC(C(=O)Nc1ccc2[nH]nc(-c3ccc(Oc4ccccc4)cc3)c2c1)c1ccccc1 (centres unmarked) [Compound I-265]	< 1000 nM
NCCC(C(=O)Nc1ccc2[nH]ncc2c1)c1ccccc1F (centres unmarked) [Compound I-1032]	< 1000 nM
NCCC(C(=O)Nc1ccc2[nH]nc(-c3cccc(C(N)=O)c3)c2c1)c1ccccc1 (centres unmarked) [Compound I-248]	< 1000 nM
NCCC(C(=O)Nc1ccc2[nH]nc(NC(=O)c3cccs3)c2c1)c1cccnc1 (centres unmarked) [Compound I-272]	< 1000 nM
NCCC(C(=O)Nc1cc(-c2ccccc2Cl)c2[nH]ncc2c1)c1ccc(Cl)c(Cl)c1 (centres unmarked) [Compound I-148]	> 3000 nM
CC(=O)O[C@@H](C(=O)Nc1ccc2[nH]ncc2c1)c1ccccc1 [Compound I-33]	> 3000 nM
CC(C)c1cccc(-c2n[nH]c3ccc(NC(=O)C(CCN)c4ccccc4)cc23)c1 (centres unmarked) [Compound I-229]	> 3000 nM
NCCC(C(=O)Nc1ccc2[nH]nc(-c3ccc(F)cc3)c2c1)c1ccccc1 (centres unmarked) [Compound I-1027]	< 1000 nM
Cc1n[nH]c2ccc(NC(=O)C(CCN)c3ccsc3)cc12 (centres unmarked) [Compound I-1035]	< 1000 nM
Cc1n[nH]c2ccc(NC(=O)C(CCN)c3ccco3)cc12 (centres unmarked) [Compound I-1037]	> 3000 nM
NCCC(C(=O)Nc1ccc2[nH]nc(-c3cccc(-c4ccccc4)c3)c2c1)c1ccccc1 (centres unmarked) [Compound I-228]	1000 to 3000 nM
COc1cccc(C(CCN)C(=O)Nc2ccc3[nH]nc(Nc4cccc(Cl)c4)c3c2)c1 (centres unmarked) [Compound I-1029]	> 3000 nM
